Assay results: patent US9505775B2, “Inhibitors of cytomegalovirus” (Boehringer Ingelheim International GmbH, priority 2012, dated 2016)

What follows are compounds tested against T1, purified recombinant HCMV polymerase from strain AD169 (UL54) (Human cytomegalovirus, UniProt P08546) (assay: HCMV Polymerase LANCE TR-FRET Assay). Details: 2 nM GST-UL54, 37° C. for 30 min; read-out: IC50 (nM) Example B.
T1 construct: made in house; host or cells: Sf21 insect cells (baculovirus)
Format: biochemical
Protocol: This non-radiometric assay determines the enzymatic activity of purified recombinant HCMV polymerase from strain AD169 (UL54) using a Digoxigenin-labeled oligonucleotide priming a heteropolymeric template. The enzymatic activity is determined by incorporating Biotin-dUTP in the nascent complementary strand. The signal is generated by Fluorescence Resonance Energy Transfer from the donor (Anti-Digoxigenin-Europium Chelate binding with the primer) to the acceptor Streptavidin-AlloPhycoCyanin (SA-APC) binding to the biotin of the labeled nucleotides incorporated in proximity.
Serial dilutions of the DMSO stock compound solution are performed using DMSO in columns 2-11 and 14-23. DMSO alone is present in columns 1, 12, 13 and 24. Three μL of the DMSO serial dilutions is transferred and diluted using 21 μL of compound dilution buffer (10 mM Hepes pH 7.5, 25 mM KCl, 5 mM MgCl2, 1 mM TCEP) to obtain 12.5% DMSO. 4 μL per well of the 12.5% DMSO serial dilution compound solution is added to the assay plate. The plate is centrifuged at 200×g for 30 sec.
The assay conditions are the following: 10 mM HEPES pH 7.5, 25 mM KCl, 7.5 mM NaCl, 5 mM MgCl2, 0.2 mg BSA/mL, 1 mM TCEP, 1.5% glycerol, 5% DMSO, 235 nM dATP, 350 nM dCTP, 350 nM dGTP, 235 nM dTTP, 12 nM biotin-16-dUTP, 23.5 nM Dig-primer/template, 2 nM GST-UL54. The assay volume is 10 μL. […] The primer and template are annealed in 10 mM Tris-HCl pH 7.5, 50 mM NaCl at a respective concentration of 50 μM. They are incubated at 95° C. for 5 min in a dry batch block. The block is removed from the dry bath and allowed to cool to RT. Aliquots are made and stored at −20° C.
To perform the assay, 3 μL of the enzyme solution is added to columns 2-12 and 14-24. The enzyme is substituted by the blank solution (b solution without enzyme) for columns 1 and 13 (blanks). The plate is centrifuged at 200×g for 30 sec. 3 μL of substrate solution is added to each well. The plate is centrifuged at 200×g for 30 sec. Plates are incubated at 37° C. for 30 min. 5 μL of conjugate solution is added (25 mM Hepes pH 7.5, 0.1 M NaCl, 0.25% Tween-20, 1 mg/mL BSA, 12 mM EDTA, 24 nM Sreptavidin-APC, 342 ng/mL Anti-Dig-Europium). The plates are incubated at RT for at least 120 min. The signal is read on the Envision plate reader (Perkin-Elmer) or equivalent.

T1 sequence (P08546 whole entry): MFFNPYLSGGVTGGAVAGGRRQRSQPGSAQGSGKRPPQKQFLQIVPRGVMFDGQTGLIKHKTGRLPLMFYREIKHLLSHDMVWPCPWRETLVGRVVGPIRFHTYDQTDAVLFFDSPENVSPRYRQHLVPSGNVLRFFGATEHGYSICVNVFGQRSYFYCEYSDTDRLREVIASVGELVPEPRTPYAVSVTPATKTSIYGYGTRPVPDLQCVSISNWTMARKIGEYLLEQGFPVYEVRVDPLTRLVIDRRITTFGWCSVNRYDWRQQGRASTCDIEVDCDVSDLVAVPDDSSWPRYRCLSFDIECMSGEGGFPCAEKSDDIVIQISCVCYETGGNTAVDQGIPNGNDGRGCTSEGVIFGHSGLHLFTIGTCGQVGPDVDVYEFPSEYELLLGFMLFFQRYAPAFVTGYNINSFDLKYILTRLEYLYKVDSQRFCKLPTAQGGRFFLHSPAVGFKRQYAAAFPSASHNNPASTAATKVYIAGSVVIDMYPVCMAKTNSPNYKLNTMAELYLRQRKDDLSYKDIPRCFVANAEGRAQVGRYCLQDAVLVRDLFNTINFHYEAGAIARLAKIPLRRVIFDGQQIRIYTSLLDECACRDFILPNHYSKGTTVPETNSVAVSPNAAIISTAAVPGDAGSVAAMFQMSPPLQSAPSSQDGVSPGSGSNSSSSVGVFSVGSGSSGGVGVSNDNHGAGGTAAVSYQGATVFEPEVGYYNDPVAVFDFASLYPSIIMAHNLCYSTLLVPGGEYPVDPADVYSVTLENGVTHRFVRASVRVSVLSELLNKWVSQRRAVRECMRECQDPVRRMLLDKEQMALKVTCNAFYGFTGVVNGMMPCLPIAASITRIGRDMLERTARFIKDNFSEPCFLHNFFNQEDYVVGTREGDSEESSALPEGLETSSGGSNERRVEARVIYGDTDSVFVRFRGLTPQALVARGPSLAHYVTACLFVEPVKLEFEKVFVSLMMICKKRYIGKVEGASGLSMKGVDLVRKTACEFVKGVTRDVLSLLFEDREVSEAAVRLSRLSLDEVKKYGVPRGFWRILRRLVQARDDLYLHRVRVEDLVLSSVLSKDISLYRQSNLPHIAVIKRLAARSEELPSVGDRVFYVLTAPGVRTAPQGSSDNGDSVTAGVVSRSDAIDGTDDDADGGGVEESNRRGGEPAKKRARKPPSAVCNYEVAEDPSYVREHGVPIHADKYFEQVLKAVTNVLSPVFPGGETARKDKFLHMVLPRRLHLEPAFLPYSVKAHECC

| Compound | IC50 |
| --- | --- |
| CC1CN(C(=O)[C@H]2CC(=O)N(c3cccc(Cl)c3)C2)c2ccc(CCn3ccnc3)cc21 (single isomer, unassigned) [11ee1] | 63 nM |
| Cc1ncc(Cc2ccc3c(c2)C(C)(CO)CN3C(=O)[C@H]2CC(=O)N(c3cccc(Cl)c3)C2)o1 (single isomer, unassigned) [11qq1] | 750 nM |
| CC(=O)N1CCC2(CC1)CN(C(=O)[C@H]1CC(=O)N(c3cccc(C#N)c3)C1)c1ccc(CN3CCOCC3)cc12 [11a1] | 580 nM |
| CC1(C)CN(C(=O)[C@H]2CC(=O)N(c3cccc(C#N)c3)C2)c2ccc(CCc3cncnc3)cc21 [11f1] | 95 nM |
| CC1(C)CN(C(=O)[C@H]2CC(=O)N(c3cccc(Cl)c3)C2)c2ccc(CCc3cncnc3)cc21 [11h1] | 94 nM |
| Cc1nccn1Cc1cc2c(cc1C(F)(F)F)N(C(=O)[C@H]1CC(=O)N(c3cccc(C#N)c3)C1)CC2(C)C [11s1] | 590 nM |
| Cc1ccc(CCc2ccc3c(c2)C(C)(C)CN3C(=O)[C@H]2CC(=O)N(c3cccc(C#N)c3)C2)cn1 [11ss1] | 130 nM |
| CC1(C)CN(C(=O)[C@H]2CC(=O)N(c3cccc(C#N)c3)C2)c2ccc(CCc3cncc(C#N)c3)cc21 [11t1] | 370 nM |
| Cn1cc(CCc2ccc3c(c2)C(C)(C)CN3C(=O)[C@H]2CC(=O)N(c3cccc(C#N)c3)C2)cn1 [11v1] | 510 nM |
| N#Cc1cccc(N2C[C@@H](C(=O)N3CCc4cc(Cn5ccnc5)ccc43)CC2=O)c1 [13a1] | 150 nM |
| Cc1nccn1Cc1cc2c(cc1F)N(C(=O)[C@H]1CC(=O)N(c3cccc(C#N)c3)C1)CC2(C)C [13f1] | 140 nM |
| Cc1nccn1Cc1ccc2c(c1F)C(C)(C)CN2C(=O)[C@H]1CC(=O)N(c2cccc(C#N)c2)C1 [13g1] | 2100 nM |
| CC(=O)N1CCC2(CC1)CN(C(=O)[C@H]1CC(=O)N(c3cccc(C#N)c3)C1)c1ccc(Cn3ccnc3C)cc12 [13v1] | 1600 nM |
| CC1(C)CN(C(=O)C2CC(=O)N(c3cccc(C#N)c3)C2)c2ccc(COc3cncnc3)cc21 (stereo not drawn) [13w1] | 840 nM |
| Cc1nccn1Cc1cc2c(cc1Cl)N(C(=O)[C@H]1CC(=O)N(c3cccc(C#N)c3)C1)CC2(C)C [13x1] | 50 nM |
| CC(C)n1cnnc1CN(C)Cc1ccc2c(c1)CCN2C(=O)C1CC(=O)N(c2cccc(C#N)c2)C1 (stereo not drawn) [16c3] | 600 nM |

| Compound | IC50 |
| --- | --- |
| CC1(C)CN(C(=O)[C@H]2CC(=O)N(c3cccc(C#N)c3)C2)c2cc(Cl)c(CCn3ccnc3)cc21 [17b1] | 330 nM |
| N#Cc1cccc(N2C[C@@H](C(=O)N3CCc4nc(CCn5ccnc5)ccc43)CC2=O)c1 [17n1] | 540 nM |
| CC1(C)CN(C(=O)[C@H]2CC(=O)N(c3cccc(C#N)c3)C2)c2ccc(CCc3ccccc3)cc21 [19b2] | 990 nM |
| Cn1cncc1CCc1ccc2c(c1)C(C)(C)CN2C(=O)[C@H]1CC(=O)N(c2cccc(C#N)c2)C1 [19c2] | 420 nM |
| Cc1noc(C)c1Cc1ccc2c(c1)C(C)(C)CN2C(=O)[C@H]1CC(=O)N(c2cccc(C#N)c2)C1 [22bb1] | 350 nM |
| Cc1oncc1Cc1ccc2c(c1)CCN2C(=O)[C@H]1CC(=O)N(c2cccc(C#N)c2)C1 [22dd1] | 290 nM |
| Cn1cncc1Cc1ccc2c(c1)CCN2C(=O)[C@H]1CC(=O)N(c2cccc(C#N)c2)C1 [22j1] | 480 nM |
| CC1(C)CN(C(=O)[C@H]2CC(=O)N(c3cccc(C#N)c3)C2)c2ccc(Cc3cncnc3)cc21 [22l1.2] | 380 nM |
| CC1(C)CN(C(=O)[C@H]2CC(=O)N(c3cccc(C#N)c3)C2)c2ccc(Cc3ccncc3)cc21 [22o1] | 2900 nM |
| Cc1ncc(Cc2ccc3c(c2)C(C)(C)CN3C(=O)C2CC(=O)N(c3cccc(C#N)c3)C2)o1 (stereo not drawn) [22s1] | 550 nM |
| N#Cc1cccc(N2C[C@@H](C(=O)N3CC4(CC4)c4cc(Cc5cncnc5)ccc43)CC2=O)c1 [22u1] | 570 nM |
| Cc1ncc(Cc2ccc3c(c2)C2(CC2)CN3C(=O)[C@H]2CC(=O)N(c3cccc(C#N)c3)C2)o1 [22v1] | 790 nM |
| Cc1ncc(Cc2ccc3c(c2)C(C)(C)CN3C(=O)[C@H]2CC(=O)N(c3cccc(C#N)c3)C2)o1 [22w1] | 470 nM |
| CC(=O)N1CCC2(CC1)CN(C(=O)[C@H]1CC(=O)N(c3cccc(C#N)c3)C1)c1ccc(Cc3cncnc3)cc12 [22z1] | 1300 nM |
| CC1(C)CN(C(=O)[C@H]2CC(=O)N(c3cccc(C#N)c3)C2)c2ccc(Cn3ccnc3CC(=O)O)cc21 [24a1] | 690 nM |
| CC1(C)CN(C(=O)[C@H]2CC(=O)N(c3cccc(C#N)c3)C2)c2ccc(CNc3cncnc3)cc21 [31a1] | 86 nM |

The next lines start with the values.

| IC50 | Compound |
| --- | --- |
| 350 nM | CC(c1ccc2c(c1)C(C)(C)CN2C(=O)[C@H]1CC(=O)N(c2cccc(C#N)c2)C1)n1ccnc1 (mixture of isomers) [11rr1] |
| 100 nM | CC1CN(C(=O)[C@H]2CC(=O)N(c3cccc(C#N)c3)C2)c2ccc(CCn3ccnc3)cc21 (single isomer, unassigned) [11aa1] |
| 71 nM | CC1CN(C(=O)[C@H]2CC(=O)N(c3cccc(C#N)c3)C2)c2ccc(CCc3cncnc3)cc21 (single isomer, unassigned) [11dd1] |
| 150 nM | CC1CN(C(=O)[C@H]2CC(=O)N(c3cccc(Cl)c3)C2)c2ccc(CCc3cncnc3)cc21 (single isomer, unassigned) [11hh1] |
| 1600 nM | Cn1cncc1CCc1ccc2c(c1)C(C)(CO)CN2C(=O)[C@H]1CC(=O)N(c2cccc(Cl)c2)C1 (single isomer, unassigned) [11oo1] |
| 3200 nM | Cc1nccn1Cc1ccc2c(c1)C(C)CN2C(=O)[C@H]1CC(=O)N(c2cccc(C#N)c2)C1 (single isomer, unassigned) [13o1] |
| 310 nM | CC1(C)CN(C(=O)[C@H]2CC(=O)N(c3cccc(C#N)c3)C2)c2ccc(CCc3ccccn3)cc21 [11bbb1] |
| 87 nM | CC1(C)CN(C(=O)[C@H]2CC(=O)N(c3cccc(C#N)c3)C2)c2ccc(CCc3cccc(O)c3)cc21 [11ccc1] |
| 38 nM | CC1(C)CN(C(=O)[C@H]2CC(=O)N(c3cccc(C#N)c3)C2)c2ccc(CCc3cncc(N)c3)cc21 [11ddd1] |
| 240 nM | CC1(C)CN(C(=O)[C@H]2CC(=O)N(c3cccc(C#N)c3)C2)c2ccc(CCn3ccnc3)cc21 [11e1] |
| 200 nM | CC1(C)CN(C(=O)[C@H]2CC(=O)N(c3cccc(Cl)c3)C2)c2ccc(CCn3ccnc3)cc21 [11g1] |
| 49 nM | Cc1cc2c(cc1Cn1ccnc1C)C(C)(C)CN2C(=O)[C@H]1CC(=O)N(c2cccc(C#N)c2)C1 [11q1] |
| 480 nM | Cc1c(Cn2ccnc2C)ccc2c1C(C)(C)CN2C(=O)[C@H]1CC(=O)N(c2cccc(C#N)c2)C1 [11r1] |
| 160 nM | CC1(C)CN(C(=O)[C@H]2CC(=O)N(c3cccc(C#N)c3)C2)c2ccc(Cn3cnnc3)cc21 [11vv1] |
| 99 nM | CC1(C)CN(C(=O)[C@H]2CC(=O)N(c3cccc(C#N)c3)C2)c2ccc(CCn3cncn3)cc21 [11zz1] |
| 110 nM | CC1(C)CN(C(=O)[C@H]2CC(=O)N(c3cccc(Cl)c3)C2)c2ccc(Cn3ccnc3)cc21 [13d1] |
| 230 nM | CC1(C)CN(C(=O)C2CC(=O)N(c3cccc(C#N)c3)C2)c2cc(Cl)c(Cn3cnnc3)cc21 (stereo not drawn) [13l1] |
| 360 nM | N#Cc1cccc(N2C[C@@H](C(=O)N3CC4(CC4)c4cc(Cn5ccnc5)ccc43)CC2=O)c1 [13r1] |
| 730 nM | N#Cc1cccc(N2C[C@@H](C(=O)N3CC4(CCOCC4)c4cc(Cn5ccnc5)ccc43)CC2=O)c1 [13t1] |
| 240 nM | CNc1ncc(CCc2ccc3c(c2)C(C)(C)CN3C(=O)[C@H]2CC(=O)N(c3cccc(C#N)c3)C2)cn1 [17o1] |
| 260 nM | CC1(C)CN(C(=O)[C@H]2CC(=O)N(c3cccc(C#N)c3)C2)c2ccc(Cc3cnoc3)cc21 [22a2] |
| 550 nM | CC1(C)CN(C(=O)[C@H]2CC(=O)N(c3cccc(C#N)c3)C2)c2ccc(Cn3cncc3C(=O)O)cc21 [24d1] |
